# From patent US10065970B2 (Genentech, Inc., priority 2015, dated 2018)
# Counter-ions that a name gives are not always drawn.
# Molecular target: PI3Kα (alpha) (Homo sapiens (Human), UniProt P42336)
# Assay: p110α (alpha) PI3K Binding Assay (ADP-Glo lipid kinase reaction)
# Format: biochemical
# Settings: PI3K alpha 0.2 nM, ATP 40 μM, PIP2:3PS 50 μM, 120 min, room temperature; Ki by Morrison Equation; read-out: PI3Kα-(alpha) ATP (Ki) micromolar
# Summary of the method: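 Enzyme with PIP2:3PS lipid substrate and ATP/MgCl2 in 50 mM HEPES, 50 mM NaCl, 3 mM MgCl2, 0.01% BSA, 1% DMSO, 120 min at room temperature. ADP formed detected by ADP-Glo luminescence. Ki from 10-point dose-response curves via the Morrison equation.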
# Sequence of PI3Kα (alpha) (P42336 whole entry): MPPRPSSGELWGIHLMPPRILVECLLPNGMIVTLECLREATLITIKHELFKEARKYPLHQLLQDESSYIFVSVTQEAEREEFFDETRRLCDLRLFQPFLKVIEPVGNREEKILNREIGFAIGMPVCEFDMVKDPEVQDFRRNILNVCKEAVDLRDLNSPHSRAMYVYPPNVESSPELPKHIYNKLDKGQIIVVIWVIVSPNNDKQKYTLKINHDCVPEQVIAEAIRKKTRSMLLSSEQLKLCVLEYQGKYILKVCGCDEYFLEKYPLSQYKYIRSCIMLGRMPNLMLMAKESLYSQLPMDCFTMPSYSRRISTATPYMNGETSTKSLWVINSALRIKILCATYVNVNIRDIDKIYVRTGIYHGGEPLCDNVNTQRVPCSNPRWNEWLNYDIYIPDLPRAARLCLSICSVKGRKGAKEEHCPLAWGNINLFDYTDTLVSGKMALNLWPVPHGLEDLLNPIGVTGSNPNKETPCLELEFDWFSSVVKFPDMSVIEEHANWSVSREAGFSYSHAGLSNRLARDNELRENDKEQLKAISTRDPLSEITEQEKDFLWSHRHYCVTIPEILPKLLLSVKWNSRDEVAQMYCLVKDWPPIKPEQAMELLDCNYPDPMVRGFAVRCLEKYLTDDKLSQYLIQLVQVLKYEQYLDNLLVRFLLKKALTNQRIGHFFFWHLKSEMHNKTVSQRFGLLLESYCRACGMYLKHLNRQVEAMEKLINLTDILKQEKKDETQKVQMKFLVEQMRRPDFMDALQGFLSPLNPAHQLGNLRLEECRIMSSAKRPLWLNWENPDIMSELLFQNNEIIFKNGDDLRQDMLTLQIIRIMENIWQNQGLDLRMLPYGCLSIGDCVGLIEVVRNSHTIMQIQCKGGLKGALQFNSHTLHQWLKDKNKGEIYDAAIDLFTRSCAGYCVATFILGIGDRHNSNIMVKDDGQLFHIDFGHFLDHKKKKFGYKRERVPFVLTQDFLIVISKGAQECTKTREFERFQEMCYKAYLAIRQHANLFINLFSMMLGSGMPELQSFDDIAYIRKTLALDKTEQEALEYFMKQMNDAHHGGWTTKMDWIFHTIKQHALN
# Sequence of PI3Kα (alpha) (P27986 whole entry partner): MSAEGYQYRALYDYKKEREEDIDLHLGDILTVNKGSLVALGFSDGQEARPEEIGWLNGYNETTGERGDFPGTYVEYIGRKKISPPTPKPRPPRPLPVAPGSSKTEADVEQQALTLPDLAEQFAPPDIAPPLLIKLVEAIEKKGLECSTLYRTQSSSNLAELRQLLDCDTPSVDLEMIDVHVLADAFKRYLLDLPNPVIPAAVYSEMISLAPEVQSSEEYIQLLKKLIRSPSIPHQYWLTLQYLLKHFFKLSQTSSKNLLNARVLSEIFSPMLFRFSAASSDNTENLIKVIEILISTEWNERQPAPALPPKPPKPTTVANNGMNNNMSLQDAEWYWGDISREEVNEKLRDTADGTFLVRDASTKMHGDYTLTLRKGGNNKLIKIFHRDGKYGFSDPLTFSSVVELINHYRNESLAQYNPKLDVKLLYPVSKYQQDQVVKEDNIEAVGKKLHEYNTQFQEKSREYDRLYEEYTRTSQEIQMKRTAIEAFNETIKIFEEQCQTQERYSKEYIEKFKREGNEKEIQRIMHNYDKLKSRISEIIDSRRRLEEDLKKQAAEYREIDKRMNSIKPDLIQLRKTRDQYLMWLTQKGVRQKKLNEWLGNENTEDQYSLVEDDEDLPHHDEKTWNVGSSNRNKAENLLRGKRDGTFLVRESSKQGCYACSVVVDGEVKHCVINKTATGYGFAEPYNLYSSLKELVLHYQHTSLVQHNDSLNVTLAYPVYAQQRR
row,Structure (SMILES),Ki [nM]
1,"NC(=O)[C@@H](Nc1cc2c3c(c1)nc(-c1ccc4ncsc4c1)n3CCCO2)C1CC1 [Example 178, (S)-2-((1-(Benzo[d]thiazol-6-yl)-8,9-dihydro-7H-6-oxa-2,9a-diazabenzo[cd]azulen-4-yl)amino)-2-cyclopropylacetamide]",32.2
2,"NC(=O)[C@@H](Nc1cc2c3c(c1)nc(N1CCc4nccnc4C1)n3CCCO2)C1CC1 [Example 179, (S)-2-Cyclopropyl-2-((1-(7,8-dihydropyrido[3,4-b]pyrazin-6(5H)-yl)-8,9-dihydro-7H-6-oxa-2,9a-diazabenzo[cd]azulen-4-yl)amino)acetamide]",154
3,"NC(=O)[C@@H](Nc1cc2c3c(c1)nc(N1CCCOCC1)n3CCCO2)C1CC1 [Example 180, (S)-2-((1-(1,4-Oxazepan-4-yl)-8,9-dihydro-7H-6-oxa-2,9a-diazabenzo[cd]azulen-4-yl)amino)-2-cyclopropylacetamide]",664
4,"CC(C)(C(N)=O)n1cc(-c2nc3cc(N[C@H](C(N)=O)C4CC4)cc4c3n2CCCO4)cn1 [Example 181, 2-(4-{4-[((S)-Carbamoylcyclopropylmethyl)amino]-8,9-dihydro-7H-6-oxa-2,9a-diazabenzo[cd]azulen-1-yl}pyrazol-1-yl)isobutyramide formic acid salt]",195
5,"NC(=O)[C@@H](Nc1cc2c3c(c1)nc(N1CCCC(O)C1)n3CCCO2)C1CC1 (stereo partly drawn) [Example 182, (S)-2-Cyclopropyl-2-[1-(3-hydroxypiperidin-1-yl)-8,9-dihydro-7H-6-oxa-2,9a-diazabenzo[cd]azulen-4-ylamino]acetamide]",398
6,"NC(=O)[C@@H](Nc1cc2c3c(c1)nc(-c1ccc4sc(N)nc4c1)n3CCCO2)C1CC1 [Example 184, (S)-2-((1-(2-Aminobenzo[d]thiazol-5-yl)-8,9-dihydro-7H-6-oxa-2,9a-diazabenzo[cd]azulen-4-yl)amino)-2-cyclopropylacetamide]",0.491
7,"CNc1nc2cc(-c3nc4cc(N[C@@H](C)C(N)=O)cc5c4n3CCCO5)ccc2o1 [Example 185, (S)-2-((1-(2-(Methylamino)benzo[d]oxazol-5-yl)-8,9-dihydro-7H-6-oxa-2,9a-diazabenzo[cd]azulen-4-yl)amino)propanamide]",2.01
8,"CNc1nc2cc(-c3nc4cc(N5CCC[C@H]5C(N)=O)cc5c4n3CCCO5)ccc2o1 [Example 186, (S)-1-(1-(2-(methylamino)benzo-[d]oxazol-5-yl)-8,9-dihydro-7H-6-oxa-2,9a-diazabenzo[cd]azulen-4-yl)pyrrolidine-2-carboxamide]",6.93
9,"NC(=O)[C@@H](Nc1cc2c3c(c1)nc(-c1ccc4nc(N)cnc4c1)n3CCCO2)C1CC1 [Example 187, (S)-2-((1-(2-Aminoquinoxalin-6-yl)-8,9-dihydro-7H-6-oxa-2,9a-diazabenzo[cd]azulen-4-yl)amino)-2-cyclopropylacetamide]",0.056
10,"NC(=O)c1ccc(-c2nc3cc(N[C@H](C(N)=O)C4CC4)cc4c3n2CCCO4)cc1F [Example 188, (S)-4-(4-((2-Amino-1-cyclopropyl-2-oxoethyl)amino)-8,9-dihydro-7H-6-oxa-2,9a-diazabenzo[cd]azulen-1-yl)-2-fluorobenzamide]",81.4
11,"NC(=O)[C@@H](Nc1cc2c3c(c1)nc(-c1ccc(-c4nc[nH]n4)cc1)n3CCCO2)C1CC1 [Example 190, (S)-2-((1-(4-(1H-1,2,4-Triazol-3-yl)phenyl)-8,9-dihydro-7H-6-oxa-2,9a-diazabenzo[cd]azulen-4-yl)amino)-2-cyclopropylacetamide]",0.15
12,"NC(=O)c1ccc(-c2nc3cc(N[C@H](C(N)=O)C4CC4)cc4c3n2CCCO4)cn1 [Example 191, (S)-5-(4-((2-Amino-1-cyclopropyl-2-oxoethyl)amino)-8,9-dihydro-7H-6-oxa-2,9a-diazabenzo[cd]azulen-1-yl)picolinamide]",105
13,"Nc1nc2cc(-c3nc4cc(NC5CC(F)(F)C5)cc5c4n3CCCO5)ccc2o1 [Example 192, 1-(2-Aminobenzo[d]oxazol-5-yl)-N-(3,3-difluorocyclobutyl)-8,9-dihydro-7H-6-oxa-2,9a-diazabenzo[cd]azulen-4-amine]",1.64
14,"Nc1nc2cc(-c3nc4c(F)c(Br)cc5c4n3CCCO5)ccc2o1 [Example 193, 5-(4-Bromo-3-fluoro-8,9-dihydro-7H-6-oxa-2,9a-diazabenzo[cd]azulen-1-yl)benzo[d]oxazol-2-amine]",5.17
15,"NC(=O)[C@@H]1CCCN1c1cc2c3c(nc(-c4ccc5oc(N)nc5c4)n3CCCO2)c1F [Example 194, (S)-1-(1-(2-Aminobenzo[d]oxazol-5-yl)-3-fluoro-8,9-dihydro-7H-6-oxa-2,9a-diazabenzo[cd]azulen-4-yl)pyrrolidine-2-carb oxamide]",0.026
16,"NC(=O)[C@@H](Nc1cc2c3c(c1)nc(-c1ccnc4c1OCO4)n3CCCO2)C1CC1 [Example 195, (S)-2-((1-([1,3]Dioxolo[4,5-b]pyridin-7-yl)-8,9-dihydro-7H-6-oxa-2,9a-diazabenzo[cd]azulen-4-yl)amino)-2-cyclopropylacetamide]",194

row,Structure (SMILES),Ki [nM]
1,"NC(=O)[C@@H](Nc1cc2c3c(c1)nc(-c1ccc4oc(=O)[nH]c4c1)n3CCCO2)C1CC1 [Example 196, (S)-2-Cyclopropyl-2-((1-(2-oxo-2,3-dihydrobenzo[d]oxazol-5-yl)-8,9-dihydro-7H-6-oxa-2,9a-diazabenzo[cd]azulen-4-yl)amino)acetamide]",314
2,"NC(=O)[C@@H](Nc1cc2c3c(c1)nc(-c1ccc4nc(Cl)nn4c1)n3CCCO2)C1CC1 [Example 197, (S)-2-((1-(2-Chloro-[1,2,4]triazolo[1,5-a]pyridin-6-yl)-8,9-dihydro-7H-6-oxa-2,9a-diazabenzo[cd]azulen-4-yl)amino)-2-cyclopropylacetamide]",27.2
3,"OCc1cnc2cc(-c3nc4cc(Br)cc5c4n3CCCO5)ccc2n1 [Example 198, (6-(4-Bromo-8,9-dihydro-7H-6-oxa-2,9a-diazabenzo[cd]azulen-1-yl)quinoxalin-2-yl)methanol]",677
4,"NC(=O)[C@@H]1CCCN1c1cc2c3c(c1)nc(-c1ccc4[nH]cnc4c1)n3CCCO2 [Example 199, (S)-1-(1-(1H-Benzo[d]imidazol-5-yl)-8,9-dihydro-7H-6-oxa-2,9a-diazabenzo[cd]azulen-4-yl)pyrrolidine-2-carboxamide]",33.2
5,"NC(=O)[C@@H](Nc1cc2c3c(c1)nc(-c1ccc4nc(N)nn4c1)n3CCCO2)C1CC1 [Example 201, (S)-2-((1-(2-Amino-[1,2,4]triazolo[1,5-a]pyridin-6-yl)-8,9-dihydro-7H-6-oxa-2,9a-diazabenzo[cd]azulen-4-yl)amino)-2-cyclopropylacetamide]",0.717
6,"C[C@H](Oc1cc2c3c(c1)nc(-c1ccc4oc(N)nc4c1)n3CCCCO2)C(N)=O [Example 204, (S)-2-((1-(2-Aminobenzo[d]oxazol-5-yl)-7,8,9,10-tetrahydro-6-oxa-2,10a-diazacycloocta[cd]inden-4-yl)oxy)propanamide]",< 0.02
7,"Cc1cc(-c2nc3cc(N[C@H](C(N)=O)C4CC4)cc4c3n2CCCO4)cc2nc(N)oc12 [Example 205, (S)-2-((1-(2-Amino-7-methylbenzo[d]oxazol-5-yl)-8,9-dihydro-7H-6-oxa-2,9a-diazabenzo[cd]azulen-4-yl)amino)-2-cyclopropylacetamide]",0.191
8,"NC(=O)[C@@H]1CCCN1c1cc2c3c(c1)nc(-c1ccnc4[nH]nnc14)n3CCCO2 [Example 206, (S)-1-(1-(3H-[1,2,3]Triazolo[4,5-b]pyridin-7-yl)-8,9-dihydro-7H-6-oxa-2,9a-diazabenzo[cd]azulen-4-yl)pyrrolidine-2-carb oxamide]",25.9
9,"NC(=O)[C@@H](Nc1cc2c3c(c1)nc(-c1ccc4nc(N)oc4c1)n3CCCO2)C1CC1 [Example 207, (S)-2-((1-(2-Aminobenzo[d]oxazol-6-yl)-8,9-dihydro-7H-6-oxa-2,9a-diazabenzo[cd]azulen-4-yl)amino)-2-cyclopropylacetamide]",0.988
10,"NC(=O)[C@@H](Nc1cc2c3c(c1)nc(-c1ccc4oc(N)nc4c1)n3CCO2)C1CC1 [Example 208, (S)-2-((2-(2-Aminobenzo[d]oxazol-5-yl)-3,4-dihydro-5-oxa-1,2a-diazaacenaphthylen-7-yl)amino)-2-cyclopropylacetamide]",< 0.02
11,"NC(=O)[C@@H](Nc1cc2c3c(c1)nc(-c1cc(Cl)c4oc(N)nc4c1)n3CCCO2)C1CC1 [Example 209, (S)-2-((1-(2-Amino-7-chlorobenzo[d]oxazol-5-yl)-8,9-dihydro-7H-6-oxa-2,9a-diazabenzo[cd]azulen-4-yl)amino)-2-cyclopropylacetamide]",0.095
12,"NC(=O)[C@@H](Nc1cc2c3c(c1)nc(-c1cnn(C4COC4)c1)n3CCCO2)C1CC1 [Example 210, (S)-2-Cyclopropyl-2-((1-(1-(oxetan-3-yl)-1H-pyrazol-4-yl)-8,9-dihydro-7H-6-oxa-2,9a-diazabenzo[cd]azulen-4-yl)amino)acetamide]",285
13,"NC(=O)[C@@H](Nc1cc2c3c(c1)nc(-c1cnn(CCO)c1)n3CCCO2)C1CC1 [Example 211, (S)-2-Cyclopropyl-2-((1-(1-(2-hydroxyethyl)-1H-pyrazol-4-yl)-8,9-dihydro-7H-6-oxa-2,9a-diazabenzo[cd]azulen-4-yl)amino)acetamide]",815
14,"NC(=O)[C@@H](Nc1cc2c3c(c1)nc(-c1cn[nH]c1)n3CCCO2)C1CC1 [Example 212, (S)-2-((1-(1H-Pyrazol-4-yl)-8,9-dihydro-7H-6-oxa-2,9a-diazabenzo[cd]azulen-4-yl)amino)-2-cyclopropylacetamide]",148
15,"COc1ccc(-n2nc3cc(N[C@H](C(N)=O)C4CC4)cc4c3c2CCCO4)cn1 [Example 213, (S)-2-Cyclopropyl-2-((1-(6-methoxypyridin-3-yl)-1,7,8,9-tetrahydrooxepino[4,3,2-cd]indazol-4-yl)amino)acetamide]",23.8
